The test has as its target T1, dopamine D3 receptor (Homo sapiens, UniProt P35462).
T1 construct: expressed in transfected cells; membranes prepared from them
The test is described as follows: GTPγS scintillation proximity assay (GTPγS-SPA), CHO_D3 cell membranes. The test is classed as biochemical. The following applies: Enantiomer 2 compared with Enantiomer 1 of Example 1. The method, then:
Functional potency and intrinsic activity of compounds of this invention can be measured by the following GTPγS scintillation proximity assay (GTPγS-SPA). Cells used in the study are Chinese Hamster Ovary (CHO) Cells.
Compounds may be tested according to two alternative protocols:
a) Cell membranes are prepared as follows. Cell pellets are resuspended in 10 volumes of 50 mM HEPES, 1 mM EDTA pH 7.4, using KOH. On the day the following proteases are added to the buffer just prior to giving the homogenisation buffer.
The cells are homogenised by 2×15 second bursts in a 1 litre Glass Waring blender in a class two biohazard cabinet. The resulting suspension is spun at 500 g for 20 mins (Beckman T21 centrifuge: 1550 rpm). The supernatant is withdrawn with a 25 ml pipette, aliquotted into pre-chilled centrifuge tubes and spun at 48,000 g to pellet membrane fragments (Beckman T1270: 23,000 rpm for 30 mins). The final 48,000 g pellet is resuspended in Homogenisation Buffer, (4× the volume of the original cell pellet). […] Protein content in the membrane preparations is evaluated with the Bradford protein assay.
The final top concentration of test drug is 3 uM in the assay and 11 points serial dilution curves 1:4 in 100% DMSO are carried out using a Biomek FX. […] Assay plates are counted on a Viewlux, 613/55 filter, for 5 min., between 2-6 hours after the final addition. […]

Bounds are passed on as bounds.

T1 sequence (P35462 whole entry, species assumed): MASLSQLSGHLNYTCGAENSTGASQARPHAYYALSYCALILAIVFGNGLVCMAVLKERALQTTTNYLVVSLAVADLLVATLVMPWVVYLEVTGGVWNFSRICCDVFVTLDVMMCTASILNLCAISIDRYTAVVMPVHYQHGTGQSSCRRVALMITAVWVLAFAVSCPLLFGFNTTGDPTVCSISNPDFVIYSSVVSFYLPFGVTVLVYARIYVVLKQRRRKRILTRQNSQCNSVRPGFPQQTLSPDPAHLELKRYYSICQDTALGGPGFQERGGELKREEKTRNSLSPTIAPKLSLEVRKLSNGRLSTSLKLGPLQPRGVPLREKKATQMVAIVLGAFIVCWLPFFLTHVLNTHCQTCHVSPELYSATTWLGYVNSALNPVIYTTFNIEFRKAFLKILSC

Turning to `CC(C)c1ccc(S(=O)(=O)Nc2ccc(C34CNCC3C4)cc2)cc1.Cl` (single isomer, unassigned; enantiomer 2) [Enantiomer 2, N-{4-[(1R,5R or 1S,5R)-3-azabicyclo[3.1.0]hex-1-yl]phenyl}-4-(1-methylethyl)benzenesulfonamide hydrochloride], the “fpki (D3) difference, higher than Enantiomer 1” value was over 1 log-unit.

The record behind these values is patent US7776904B2, “Azabicyclo [3.1.0] hexylphenyl derivatives as modulators of dopamine D3 receptors” (Glaxo Group Limited, priority 2005, dated 2010).
